From patent US10765114B2, “4-amino-6-(pyridyl and 2-substitutedphenyl)-picolinates and 6-amino-2-(pyridyl and 2-substitutedphenyl)-pyrimidine-4-carboxylates and their use as herbicides” (Dow AgroSciences LLC, priority 2013, dated 2020)

Columns and labels:
Assay in all cases: Post-Emergent Test III (Wheat and Barley)
BROTE (downy brome) = format: in vivo, Bromus tectorum; settings: for Visual Growth Reduction (%) 21 Days After Application, BROTE: postemergence; for GR50, BROTE: effective dose for growth reduction of 50 percent; for GR50, BROTE / GR80, BROTE / GR90, BROTE: probit analysis; for GR80, BROTE: effective dose for growth reduction of 80 percent; for GR90, BROTE: effective dose for growth reduction of 90 percent
Procedure: (§1) Seeds of the desired test plant species were planted in Sun Gro MetroMix® 306 planting mixture, which typically has a pH of 6.0 to 6.8 and an organic matter content of about 30 percent, in plastic pots with a surface area of 103.2 square centimeters (cm^2). When required to ensure good germination and healthy plants, a fungicide treatment and/or other chemical or physical treatment was applied. The plants were grown for 7-36 days in a greenhouse with an approximate 14 h photoperiod which was maintained at about 18° C. during the day and 17° C. during the night. Nutrients and water were added on a regular basis and supplemental lighting was provided with overhead metal halide 1000-Watt lamps as necessary. The plants were employed for testing when they reached the second or third true leaf stage.
(§2) A weighed amount, determined by the highest rate to be tested, of each test compound was placed in a 25 mL glass vial and was dissolved in 4 mL of a 97:3 v/v mixture of acetone and DMSO to obtain concentrated stock solutions. […] The concentrated stock solutions obtained were diluted with 20 mL of an aqueous mixture containing acetone, water, isopropyl alcohol, DMSO, Agri-Dex crop oil concentrate, and X-77 surfactant in a 48:39:10:1.5:1.5:0.02 v/v ratio to obtain spray solutions containing the highest application rates. Additional application rates were obtained by serial dilution of 12 mL of the high rate solution into a solution containing 2 mL of 97:3 v/v mixture of acetone and DMSO and 10 mL of an aqueous mixture containing acetone, water, isopropyl alcohol, DMSO, Agri-Dex crop oil concentrate, and X-77 surfactant in a 48:39:10:1.5:1.5:0.02 v/v ratio to obtain ½×, ¼×, ⅛× and 1/16× rates of the high rate. Compound requirements are based upon a 12 mL application volume at a rate of 187 liters per hectare (L/ha). Formulated compounds were applied to the plant material with an overhead Mandel track sprayer equipped with 8002E nozzles calibrated to deliver 187 L/ha over an application area of 0.503 square meters at a spray height of 18 inches (43 cm) above the average plant canopy height. Control plants were sprayed in the same manner with the solvent blank.
(§3) The treated plants and control plants were placed in a greenhouse as described above and watered by subirrigation to prevent wash-off of the test compounds. After 21 dAYS, the condition of the test plants as compared with that of the untreated plants was determined visually and scored on a scale of 0 to 100 percent where 0 corresponds to no injury and 100 corresponds to complete kill and presented as indicated in Table A.
(§4) By applying the well-accepted probit analysis as described by J. Berkson in Journal of the American Statistical Society, 48, 565 (1953) and by D. Finney in “Probit Analysis” Cambridge University Press (1952), herbicidal injury of a specific compound at various rates can be used to calculate GR10, GR20, GR50, GR80 and GR90 values, which are defined as growth reduction factors that correspond to the effective dose of herbicide required to provide plant growth reduction (GR) of 10 percent, 20 percent, 50 percent, 80 percent and 90 percent, respectively. Probit analysis was applied to data collected from multiple dose rates of individual compounds utilizing the procedures explained in the following examples. The analysis of those dose rates is captured in the following tables.

[1] = system: LAMPU (purple deadnettle); format: in vivo, Lamium purpureum; settings: for Visual Growth Reduction (%) 21 Days After Application, LAMPU: postemergence; for GR50, LAMPU: effective dose for growth reduction of 50 percent; for GR50, LAMPU / GR80, LAMPU / GR90, LAMPU: probit analysis; for GR80, LAMPU: effective dose for growth reduction of 80 percent; for GR90, LAMPU: effective dose for growth reduction of 90 percent
Procedure: as §1, §2, §3, §4

[2] = system: PHAMI (littleseed canarygrass); format: in vivo, Phalaris minor; settings: for Visual Growth Reduction (%) 21 Days After Application, PHAMI: postemergence; for GR50, PHAMI: effective dose for growth reduction of 50 percent; for GR50, PHAMI / GR80, PHAMI / GR90, PHAMI: probit analysis; for GR80, PHAMI: effective dose for growth reduction of 80 percent; for GR90, PHAMI: effective dose for growth reduction of 90 percent
Procedure: as §1, §2, §3, §4

SINAR (wild mustard) = format: in vivo, Sinapis arvensis; settings: for Visual Growth Reduction (%) 21 Days After Application, SINAR: postemergence; for GR50, SINAR: effective dose for growth reduction of 50 percent; for GR50, SINAR / GR80, SINAR / GR90, SINAR: probit analysis; for GR80, SINAR: effective dose for growth reduction of 80 percent; for GR90, SINAR: effective dose for growth reduction of 90 percent
Procedure: as §1, §2, §3, §4

[3] = system: VERPE (Persian speedwell); format: in vivo, Veronica persica; settings: for Visual Growth Reduction (%) 21 Days After Application, VERPE: postemergence; for GR50, VERPE: effective dose for growth reduction of 50 percent; for GR50, VERPE / GR80, VERPE / GR90, VERPE: probit analysis; for GR80, VERPE: effective dose for growth reduction of 80 percent; for GR90, VERPE: effective dose for growth reduction of 90 percent
Procedure: as §1, §2, §3, §4

Row | Compound | Visual Growth Reduction (%) 21 Days After Application, BROTE (BROTE (downy brome); 35 g ai/ha) | Visual Growth Reduction (%) 21 Days After Application, BROTE (BROTE (downy brome); 70 g ai/ha) | Visual Growth Reduction (%) 21 Days After Application, BROTE (BROTE (downy brome); 140 g ai/ha) | GR50, BROTE (BROTE (downy brome)) | GR80, BROTE (BROTE (downy brome)) | GR90, BROTE (BROTE (downy brome)) | Visual Growth Reduction (%) 21 Days After Application, LAMPU ([1]; 35 g ai/ha) | Visual Growth Reduction (%) 21 Days After Application, LAMPU ([1]; 70 g ai/ha) | Visual Growth Reduction (%) 21 Days After Application, LAMPU ([1]; 140 g ai/ha) | GR50, LAMPU [1] | GR80, LAMPU [1] | GR90, LAMPU [1] | Visual Growth Reduction (%) 21 Days After Application, PHAMI ([2]; 35 g ai/ha) | Visual Growth Reduction (%) 21 Days After Application, PHAMI ([2]; 70 g ai/ha) | Visual Growth Reduction (%) 21 Days After Application, PHAMI ([2]; 140 g ai/ha) | GR50, PHAMI [2] | GR80, PHAMI [2] | GR90, PHAMI [2] | Visual Growth Reduction (%) 21 Days After Application, SINAR (SINAR (wild mustard); 35 g ai/ha) | Visual Growth Reduction (%) 21 Days After Application, SINAR (SINAR (wild mustard); 70 g ai/ha) | further results
1 | Cc1c(-c2cc(N)c(Cl)c(C(=O)O)n2)ccc(Cl)c1F [Compound 52] | G (0-29) | F (30-44) | D (60-74) | 98 g ai/ha | >140 g ai/ha | >140 g ai/ha | A (95-100) | A (95-100) | A (95-100) | <17.5 g ai/ha | <17.5 g ai/ha | <17.5 g ai/ha | C (75-84) | B (85-94) | B (85-94) | 18 g ai/ha | 38 g ai/ha | 56 g ai/ha | A (95-100) | A (95-100) | Visual Growth Reduction (%) 21 Days After Application, SINAR (SINAR (wild mustard); 140 g ai/ha): A (95-100); GR50, SINAR (SINAR (wild mustard)): 1 g ai/ha; GR80, SINAR (SINAR (wild mustard)): 1 g ai/ha; GR90, SINAR (SINAR (wild mustard)): 5 g ai/ha; Visual Growth Reduction (%) 21 Days After Application, VERPE ([3]; 35 g ai/ha): G (0-29); Visual Growth Reduction (%) 21 Days After Application, VERPE ([3]; 70 g ai/ha): G (0-29); Visual Growth Reduction (%) 21 Days After Application, VERPE ([3]; 140 g ai/ha): E (45-59); GR50, VERPE [3]: >140 g ai/ha; GR80, VERPE [3]: >140 g ai/ha; GR90, VERPE [3]: >140 g ai/ha
2 | COC(=O)c1nc(-c2ccc(Cl)c(F)c2C)cc(N)c1Cl [Compound 73] | E (45-59) | D (60-74) | D (60-74) | 59 g ai/ha | >140 g ai/ha | >140 g ai/ha | A (95-100) | A (95-100) | A (95-100) | <17.5 g ai/ha | <17.5 g ai/ha | <17.5 g ai/ha | D (60-74) | D (60-74) | C (75-84) | 40 g ai/ha | 107 g ai/ha | >140 g ai/ha | A (95-100) | A (95-100) | Visual Growth Reduction (%) 21 Days After Application, SINAR (SINAR (wild mustard); 140 g ai/ha): A (95-100); GR50, SINAR (SINAR (wild mustard)): 1 g ai/ha; GR80, SINAR (SINAR (wild mustard)): 1 g ai/ha; GR90, SINAR (SINAR (wild mustard)): 3 g ai/ha; Visual Growth Reduction (%) 21 Days After Application, VERPE ([3]; 35 g ai/ha): G (0-29); Visual Growth Reduction (%) 21 Days After Application, VERPE ([3]; 70 g ai/ha): G (0-29); Visual Growth Reduction (%) 21 Days After Application, VERPE ([3]; 140 g ai/ha): F (30-44); GR50, VERPE [3]: >140 g ai/ha; GR80, VERPE [3]: >140 g ai/ha; GR90, VERPE [3]: >140 g ai/ha
